pIC50: −log10 of the molar value. Converted amounts (≈) assume the structure as drawn.
Columns and labels:
M. tuberculosis H37Ra = assay: microbe, parasite or virus in culture; assay type: cell-based, Mycobacterium tuberculosis; conditions: for MIC: Mycobacterium tuberculosis, H37RA, read-out: MIC against H37Ra
[1] = system: Escherichia coli ATCC25922; assay: MIC against other strains, agar double dilution; conditions: ATCC25922, 24 h
E. coli ATCC35218 = assay: MIC against other strains, agar double dilution; conditions: Escherichia coli, ATCC35218, 24 h
[2] = system: Enterococcus faecalis ATCC29212; assay: MIC against other strains, agar double dilution; conditions: ATCC29212, 24 h
VERO = assay: Cell viability assay (MTT), VERO; assay type: cell-based; conditions: Chlorocebus sabaeus, 48 h
Method: (§1) Cell viabilities were measured by 3-(4,5-dimethylthiazol-2-yl)−2,5-diphenyltetrazolium bromide (MTT) assay. Briefly, 20 µL of 5 mg/mL MTT solution was added to the culture medium and incubated at 37°C for 3 h. Then 50 µL of 20% (wt/vol) SDS was directly added to each well and incubated at 37°C overnight. The plates were shaken for 15 s and the […] reading were obtained at 570 nm wavelength. The IC50 values were calculated using the GraphPad Prism 8 software.

S. epidermidis ATCC12228 = assay: MIC against other strains, agar double dilution; conditions: Staphylococcus epidermidis, ATCC12228, 24 h
A549 = assay: Cell viability assay (MTT), A549; assay type: cell-based; conditions: Homo sapiens, 48 h
Method: as §1

S. aureus ATCC33591 = assay: MIC against other strains, agar double dilution; conditions: Staphylococcus aureus, ATCC33591, 24 h
[3] = system: Klebsiella pneumoniae ATCC700603; assay: MIC against other strains, agar double dilution; conditions: ATCC700603, 24 h
Y48 (MDR) = assay: microbe, parasite or virus in culture; assay type: cell-based, M. tuberculosis; conditions: Mycobacterium tuberculosis
[4] = system: Pseudomonas aeruginosa ATCC27853; assay: MIC against other strains, agar double dilution; conditions: ATCC27853, 24 h
Y198 (XDR) = assay: microbe, parasite or virus in culture; assay type: cell-based, M. tuberculosis; conditions: Mycobacterium tuberculosis
[5] = system: Streptococcus pneumoniae ATCC49619; assay: MIC against other strains, agar double dilution; conditions: ATCC49619, 24 h
E. faecium ATCC19434 = assay: MIC against other strains, agar double dilution; conditions: Enterococcus faecium, ATCC19434, 24 h
H37Rv = assay: MIC susceptibility testing against H37Rv; assay type: cell-based, Mycobacterium tuberculosis; conditions: Mycobacterium tuberculosis
[6] = system: Staphylococcus aureus ATCC29213; assay: MIC against other strains, agar double dilution; conditions: ATCC29213, 24 h
Y17 (MDR) = assay: microbe, parasite or virus in culture; assay type: cell-based, M. tuberculosis; conditions: Mycobacterium tuberculosis

Structure (SMILES)	MIC (M. tuberculosis H37Ra) [µg/mL]	also measured
COc1c(CN2CCOc3c(C(=O)NCC(F)F)cc(Br)cc32)ccc(F)c1F [B9, 6-bromo-4-(3,4-difluoro-2-methoxybenzyl)-N-(2,2-difluoroethyl)-3,4-dihydro-2H-benzo[b][1,4]oxazine-8-carboxamide]	> 100	–
COc1c(CN2CCOc3c(C(=O)NCCO)cc(Br)cc32)ccc(F)c1F [B10, 6-bromo-4-(3,4-difluoro-2-methoxybenzyl)-N-(2-hydroxyethyl)-3,4-dihydro-2H-benzo[b][1,4]oxazine-8-carboxamide]	> 100	–
Cc1cc(C(=O)NCC(F)F)c2c(c1)N(Cc1nc(C)c(C)nc1C)CCO2 [B11, N-(2,2-difluoroethyl)-6-methyl-4-((3,5,6-trimethylpyrazin-2-yl)methyl)-3,4-dihydro-2H-benzo[b][1,4]oxazine-8-carboxamide]	0.18 (≈ 0.461 µM)	–
Cc1cc(C(=O)NCC(F)(F)F)c2c(c1)N(Cc1nc(C)c(C)nc1C)CCO2 [B12, 6-methyl-N-(2,2,2-trifluoroethyl)-4-((3,5,6-trimethylpyrazin-2-yl)methyl)-3,4-dihydro-2H-benzo[b][1,4]oxazine-8-carboxamide]	100 (≈ 245 µM)	MIC against H37Ra (M. tuberculosis H37Ra): ≥ 100
Cc1cc(C(=O)NCCO)c2c(c1)N(Cc1nc(C)c(C)nc1C)CCO2 [B13, N-(2-hydroxyethyl)-6-methyl-4-((3,5,6-trimethylpyrazin-2-yl)methyl)-3,4-dihydro-2H-benzo[b][1,4]oxazine-8-carboxamide]	> 100	MIC against H37Ra (M. tuberculosis H37Ra): ≥ 100
Cc1cc(C(=O)NC2CC2)c2c(c1)N(Cc1nc(C)c(C)nc1C)CCO2 [B14, N-cyclopropyl-6-methyl-4-((3,5,6-trimethylpyrazin-2-yl)methyl)-3,4-dihydro-2H-benzo[b][1,4]oxazine-8-carboxamide]	50 (≈ 136 µM)	–
Cc1cc(C(=O)NC2CCCC2)c2c(c1)N(Cc1nc(C)c(C)nc1C)CCO2 [B15, N-cyclopentyl-6-methyl-4-((3,5,6-trimethylpyrazin-2-yl)methyl)-3,4-dihydro-2H-benzo[b][1,4]oxazine-8-carboxamide]	1.56 (≈ 3.95 µM)	–
Cc1cc(C(=O)NC2CCCCC2)c2c(c1)N(Cc1nc(C)c(C)nc1C)CCO2 [B16, N-cyclohexyl-6-methyl-4-((3,5,6-trimethylpyrazin-2-yl)methyl)-3,4-dihydro-2H-benzo[b][1,4]oxazine-8-carboxamide]	< 0.78	–
Cc1nc(C)c(CN2CCOc3c(C(=O)NCC(F)F)cc(C4CC4)cc32)nc1C [B17, 6-cyclopropyl-N-(2,2-difluoroethyl)-4-((3,5,6-trimethylpyrazin-2-yl)methyl)-3,4-dihydro-2H-benzo[b][1,4]oxazine-8-carboxamide]	0.6 (≈ 1.44 µM)	–
Cc1nc(C)c(CN2CCOc3c(C(=O)NCCO)cc(C4CC4)cc32)nc1C [B19, 6-cyclopropyl-N-(2-hydroxyethyl)-4-((3,5,6-trimethylpyrazin-2-yl)methyl)-3,4-dihydro-2H-benzo[b][1,4]oxazine-8-carboxamide]	> 100	–
O=C(NCC(F)(F)F)c1cc(C2CC2)cc2c1OCCN2Cc1ccc2ccccc2c1 [B20, 6-cyclopropyl-4-(naphthalen-2-ylmethyl)-N-(2,2,2-trifluoroethyl)-3,4-dihydro-2H-benzo[b][1,4]oxazine-8-carboxamide]	> 25	–
Cc1ccc(CN2CCOc3c(C(=O)NCC(F)(F)F)cc(C4CC4)cc32)cc1 [B21, 6-cyclopropyl-4-(4-methylbenzyl)-N-(2,2,2-trifluoroethyl)-3,4-dihydro-2H-benzo[b][1,4]oxazine-8-carboxamide]	> 25	–
Cc1cc(C)cc(CN2CCOc3c(C(=O)NCC(F)(F)F)cc(C4CC4)cc32)c1 [B22, 6-cyclopropyl-4-(3,5-dimethylbenzyl)-N-(2,2,2-trifluoroethyl)-3,4-dihydro-2H-benzo[b][1,4]oxazine-8-carboxamide]	> 25	–
COc1cc(CN2CCOc3c(C(=O)NCC(F)(F)F)cc(C4CC4)cc32)cc(OC)c1 [B23, 6-cyclopropyl-4-(3,5-dimethoxybenzyl)-N-(2,2,2-trifluoroethyl)-3,4-dihydro-2H-benzo[b][1,4]oxazine-8-carboxamide]	> 25	–
COc1ccc(CN2CCOc3c(C(=O)NCC(F)(F)F)cc(C4CC4)cc32)cc1F [B24, 6-cyclopropyl-4-(3-fluoro-4-methoxybenzyl)-N-(2,2,2-trifluoroethyl)-3,4-dihydro-2H-benzo[b][1,4]oxazine-8-carboxamide]	> 25	–
COC(=O)c1cccc(CN2CCOc3c(C(=O)NCC(F)(F)F)cc(C4CC4)cc32)c1 [B25, methyl 3-((6-cyclopropyl-8-((2,2,2-trifluoroethyl)carbamoyl)-2,3-dihydro-4H-benzo[b][1,4]oxazin-4-yl)methyl)benzoate]	> 25	–
Cc1nc(C)c(CN2CCOc3c(C(=O)N[C@@H](C)C(F)(F)F)cc(C4CC4)cc32)nc1C [B26, (S)-6-cyclopropyl-N-(1,1,1-trifluoropropan-2-yl)-4-((3,5,6-trimethylpyrazin-2-yl)methyl)-3,4-dihydro-2H-benzo[b][1,4]oxazine-8-carboxamide]	> 25	–
Cc1nc(C)c(CN2CCOc3c(C(=O)N[C@H](C)C(F)(F)F)cc(C4CC4)cc32)nc1C [B27, (R)-6-cyclopropyl-N-(1,1,1-trifluoropropan-2-yl)-4-((3,5,6-trimethylpyrazin-2-yl)methyl)-3,4-dihydro-2H-benzo[b][1,4]oxazine-8-carboxamide]	> 25	–
Cc1nc(C)c(CN2CCOc3c(C(=O)NCCC(F)(F)F)cc(C4CC4)cc32)nc1C [B28, 6-cyclopropyl-N-(3,3,3-trifluoropropyl)-4-((3,5,6-trimethylpyrazin-2-yl)methyl)-3,4-dihydro-2H-benzo[b][1,4]oxazine-8-carboxamide]	> 25	–
Cc1nc(C)c(CN2CCOc3c(C(=O)NCC(C)(F)F)cc(C4CC4)cc32)nc1C [B29, 6-cyclopropyl-N-(2,2-difluoropropyl)-4-((3,5,6-trimethylpyrazin-2-yl)methyl)-3,4-dihydro-2H-benzo[b][1,4]oxazine-8-carboxamide]	> 25	–
Cc1nc(C)c(CN2CCOc3c(C(=O)NCC(F)(F)CO)cc(C4CC4)cc32)nc1C [B30, 6-cyclopropyl-N-(2,2-difluoro-3-hydroxypropyl)-4-((3,5,6-trimethylpyrazin-2-yl)methyl)-3,4-dihydro-2H-benzo[b][1,4]oxazine-8-carboxamide]	> 25	–
Cc1nc(C)c(CN2CCOc3c(C(=O)NCCCC(F)(F)F)cc(C4CC4)cc32)nc1C [B31, 6-cyclopropyl-N-(4,4,4-trifluorobutyl)-4-((3,5,6-trimethylpyrazin-2-yl)methyl)-3,4-dihydro-2H-benzo[b][1,4]oxazine-8-carboxamide]	> 25	–
Cc1nc(C)c(CN2CCOc3c(C(=O)NC4CCC(F)(F)CC4)cc(C4CC4)cc32)nc1C [B32, 6-cyclopropyl-N-(4,4-difluorocyclohexyl)-4-((3,5,6-trimethylpyrazin-2-yl)methyl)-3,4-dihydro-2H-benzo[b][1,4]oxazine-8-carboxamide]	> 25	–
Cc1nc(C)c(CN2CCOc3c(C(=O)NCC(F)(F)F)cc(-c4ccccc4)cc32)nc1C [B33]	> 25	–
Cc1nc(C)c(CN2CCOc3c(C(=O)N(C)CC(F)(F)F)cc(C4CC4)cc32)nc1C [B34, 6-cyclopropyl-N-methyl-n-(2,2,2-trifluoroethyl)-4-((3,5,6-trimethylpyrazin-2-yl)methyl)-3,4-dihydro-2H-benzo[b][1,4]oxazine-8-carboxamide]	> 25	–
COc1ncnc(Cn2cc(C(=O)NCCO)c3ncc(C)cc32)c1C [TBA-7371, reference compound]	0.18 (≈ 0.506 µM)	MIC [1]: > 64 µg/mL; MIC (E. coli ATCC35218): > 64 µg/mL; MIC [2]: > 64 µg/mL; pIC50 (VERO): < 4.40; MIC (S. epidermidis ATCC12228): > 64 µg/mL; pIC50 (A549): < 4.40; MIC (S. aureus ATCC33591): > 64 µg/mL; MIC [3]: > 64 µg/mL; MIC (Y48 (MDR)): 0.6 µg/mL (≈ 1.69 µM); MIC [4]: > 64 µg/mL; MIC (Y198 (XDR)): 1.25 µg/mL (≈ 3.52 µM); MIC [5]: > 64 µg/mL; MIC (E. faecium ATCC19434): > 64 µg/mL; MIC (H37Rv; 72 h, 3 days): 2.5 µg/mL (≈ 7.03 µM); MIC (H37Rv; 168 h, 7 days): 0.625 µg/mL (≈ 1.76 µM); MIC [6]: > 64 µg/mL; MIC (Y17 (MDR)): 0.6 µg/mL (≈ 1.69 µM)

Reference: publication PMC10581193 (Microbiology Spectrum, 2023)
